System: human ectopic lesions
Experiment: Endometriosis mouse model by hetero-transplantation with human endometrial cells in SCID mice
Format: in vivo
Conditions: SCID mice with HECs carrying luciferase; 25 mg/kg once a day, 30 days; p=0.022; FIGS. 9B, 9C
Excerpt: Endometriosis Mouse Model by Hetero-transplantation with immortalized human endometrial cells: The luciferase stable immortalized human endometrial epithelial cells […] and luciferase stable immortalized human endometrial stromal cells (LIHESCs) were generated from IHESCs isolated from endometria obtained from hysterectomies for benign conditions and IHEECs generated from ovarian endometrioma by transducing lentivirus-expressing luciferase and then the expression of luciferase was validated with the luciferase activity assay. Matrigel contained the mixture of LIHESCs (1×10^6 cells) and LIHEECs (1×10^6 cells) were injected into the peritoneal cavity of female severe combined immune deficiency (SCID) mice (6 weeks old) to induce endometriosis. Henceforth, we refer to the mixture of LIHEECs and LIHESCs as human endometrial cells (HEC). […] To noninvasively determine the progression of human ectopic lesions, we injected mice with 150 mg/kg of D-Luciferin intra-peritoneally 5 min before imaging, and then determined luciferase activities of human ectopic lesions in mice using In Vivo Image System.

COc1cc(C(c2c[nH]c3ccccc23)c2c[nH]c3ccccc23)cc(Cl)c1O [DIM-C-pPhOH-3-Cl-5-OCH3]
reduction of luciferase activity in human ectopic lesions compared with the vehicle: 13.4 fold
